Source: patent US8029818B2, “Method of blunting the postprandial glycemic response to a meal” (Abbott Laboratories, priority 2001, dated 2011)

Columns and labels:
[1] = system: healthy nondiabetic adult subjects; assay: Subjective gastrointestinal tolerance questionnaire, 24-h period after the test material; format: in vivo, human; settings: for Intensity of Cramping / Intensity of Distention / Intensity of Flatulence / Intensity of Nausea: 100-mm line scale score (0 Absent, 100 Severe); for Intensity of Cramping / Intensity of Distention / Intensity of Flatulence / Intensity of Nausea / Frequency of Cramping / Frequency of Distention / Frequency of Flatulence / Frequency of Nausea: Mean ± SEM, n=31; for Frequency of Cramping / Frequency of Distention / Frequency of Flatulence / Frequency of Nausea: 100-mm line scale score (0 Usual, 100 More than usual)
Source text: (§1) The primary objective of this study was to determine the effects of the timing of fructose ingestion on the postprandial glycemic response of healthy nondiabetic adult subjects to instant mashed potatoes, a rapidly digested starch. A secondary objective was to evaluate the effects of an acute challenge of 50 g of carbohydrate from instant mashed potatoes ±10 g fructose on subjective gastrointestinal tolerance.
Using a questionnaire, subjects were asked to report the frequency and intensity of the following symptoms: nausea, cramping, distention, and flatulence for the 24-h period immediately following consumption of the test material. Intensity and frequency was set to a 100-mm line scale (0 representing “Absent” and 100 “Severe” and 0 representing “Usual” and 100 “More than usual,” respectively). Subjects placed a single perpendicular slash mark across the 100 mm horizontal line to indicate their scores for each of these variables of frequency and intensity. A score of 5 or less was considered not physiologically meaningful.

[2] = system: rats; settings: fructose intake levels greater than 17% of total Kcal; cited from earlier work
[3] = system: humans; settings: fructose intake levels greater than 17% of total Kcal; cited from earlier work
[4] = system: healthy nondiabetic adult subjects; assay: 2-hour meal tolerance test (50 g carbohydrate from instant mashed potatoes ±10 g fructose), postprandial glycemic response; format: in vivo, human; settings: for Incremental AUC / Incremental peak glucose / Time to peak: Mean ± SEM; for Glycemic index: incremental AUC for treatment/control (no supplemental fructose) × 100
Source text: as §1
The study followed a double-blind crossover design in which subjects participated in four 2-hour meal tolerance tests on separate occasions. Subjects were randomly assigned to one of 24 treatment sequences. After an overnight fast, subjects consumed 50 g carbohydrate from instant mashed potatoes with or without 10 g supplemental fructose. The effects of the timing of fructose ingestion were evaluated by having the subjects consume 10 g fructose 60, 30, or 0 min before the instant mashed potato meal. A control meal tolerance test was given where subjects received no fructose.
To ensure that subjects had similar glycogen stores on the 4 test days, subjects were instructed to consume a high carbohydrate diet (minimum 150 g carbohydrate per day) for 3 days before each meal tolerance test and were also asked to avoid exercise 24 hours before the experiment. On the evening before each meal tolerance test, all subjects consumed a low-residue dinner consisting of one 8 fl oz (237 ml) can of chocolate Ensure Plus® (Ross Laboratories, Columbus, Ohio) with additional Honey Graham Crunch Ensure® Bars (Ross Laboratories, Columbus, Ohio) to provide one-third of each subject's individual daily caloric requirement as estimated by the Harris-Benedict equation multiplied by an activity factor of 1.3. Subjects were instructed to fast overnight, following their low-residue evening meal, during which they were only allowed to consume water and smoking was prohibited. On the morning of each meal tolerance test, body weight, body temperature, pulse rate and blood pressure were measured by standard procedures. A fasting finger-prick capillary blood sample was obtained and analyzed utilizing two methods of glucose determination. One sample was immediately analyzed for glucose with an Accu-Chek Blood Glucose Monitoring System (Roche Diagnostics, Indianapolis, Ind.). An additional sample was collected into a capillary tube containing EDTA for whole blood glucose analysis (within 30 min of collection) using a YSI analyzer (model YSI 2300 STAT PLUS, Yellow Springs Instruments, Yellow Springs, Ohio). This fasting sample was considered the −60 min time point. According to randomization, subjects then consumed 10 g fructose at −60 min, −30, or 0 min or no supplemental fructose (30 ml water at −60 min). The test meal (50 g carbohydrate from instant mashed potatoes) was given at time 0 and consumed within 10 min. Additional finger-prick capillary blood was obtained at −30, 0, 15, 30, 45, 60, 90 and 120 min postprandial. Subjects were allowed 8 fl oz water (240 ml) during each 2-hour test. Immediately following each trial, body temperature, pulse rate and blood pressure were measured. Subjects returned within 7 days for repeat analysis with the appropriate crossover treatment.
The products tested were instant mashed potatoes (Hungry Jack Mashed Potatoes; Pillsbury Company) and purified crystalline fructose (Wild Oats Market grocery; Columbus, Ohio).
The primary variable for this study was incremental peak plasma glucose response. Secondary variables included incremental area under the curve, time to peak glucose, glycemic index, and subjective gastrointestinal tolerance factors. Exploratory variables included absolute and incremental plasma glucose response at −30, 0, 15, 30, 45, 60, 90, and 120 min postprandial.
A total of 31 healthy nondiabetic (fasting plasma glucose value less than 110 mg/dl; American Diabetes Association, 1997) volunteers (thirteen men and eighteen women) were recruited. […]

[5] = 10 g fructose 60 or 30 min before the meal tolerance test vs fructose with the meal or no supplemental fructose, P<0.05
[6] = Accu-Chek values, 10 g fructose at 0 min (with test meal), n=31
[7] = Accu-Chek values, 10 g fructose at −30 min relative to test meal, n=31
[8] = Accu-Chek values, 10 g fructose at −60 min relative to test meal, n=31
[9] = YSI values (whole blood), 10 g fructose at 0 min (with test meal), n=28
[10] = YSI values (whole blood), 10 g fructose at −30 min relative to test meal, n=25
[11] = YSI values (whole blood), 10 g fructose at −60 min relative to test meal, n=26

Compound: O=C(CO)[C@@H](O)[C@H](O)[C@H](O)CO [fructose]
- Intensity of Cramping ([1]; 10 g fructose at 0 min): 3 ± 1.9
- Intensity of Distention ([1]; 10 g fructose at 0 min): 1 ± 0.4
- Intensity of Flatulence ([1]; 10 g fructose at 0 min): 1 ± 0.5
- Intensity of Nausea ([1]; 10 g fructose at 0 min): 0 ± 0.2
- Intensity of Cramping ([1]; 10 g fructose at −30 min): 2 ± 1.6
- Intensity of Distention ([1]; 10 g fructose at −30 min): 3 ± 1.5
- Intensity of Flatulence ([1]; 10 g fructose at −30 min): 5 ± 1.7
- Intensity of Nausea ([1]; 10 g fructose at −30 min): 1 ± 0.4
- Intensity of Cramping ([1]; 10 g fructose at −60 min): 1 ± 0.3
- Intensity of Distention ([1]; 10 g fructose at −60 min): 1 ± 1.0
- Intensity of Flatulence ([1]; 10 g fructose at −60 min): 3 ± 1.5
- Intensity of Nausea ([1]; 10 g fructose at −60 min): 1 ± 0.3
- Frequency of Cramping ([1]; 10 g fructose at 0 min): 7 ± 4.1
- Frequency of Distention ([1]; 10 g fructose at 0 min): 1 ± 0.6
- Frequency of Flatulence ([1]; 10 g fructose at 0 min): 3 ± 1.3
- Frequency of Nausea ([1]; 10 g fructose at 0 min): 1 ± 0.2
- Frequency of Cramping ([1]; 10 g fructose at −30 min): 1 ± 0.2
- Frequency of Distention ([1]; 10 g fructose at −30 min): 4 ± 1.9
- Frequency of Flatulence ([1]; 10 g fructose at −30 min): 7 ± 2.9
- Frequency of Nausea ([1]; 10 g fructose at −30 min): 1 ± 0.2
- Frequency of Cramping ([1]; 10 g fructose at −60 min): 4 ± 3.2
- Frequency of Distention ([1]; 10 g fructose at −60 min): 1 ± 0.3
- Frequency of Flatulence ([1]; 10 g fructose at −60 min): 3 ± 1.7
- Frequency of Nausea ([1]; 10 g fructose at −60 min): 1 ± 0.3
- gastrointestinal symptoms (intensity and frequency of nausea, cramping, distention and flatulence) ([1]; all treatments: 50 g carbohydrate from instant mashed potatoes with or without 10 g supplemental fructose): Minimal effects
- effect on blood lipids [2]: cause hypertriacylglycerolemia and hypercholesterolemia
- effect on blood lipids [3]: cause hypertriacylglycerolemia and hypercholesterolemia
- Peak incremental change from baseline for plasma glucose [4, 5]: lower
- incremental area under the curve for plasma glucose [4, 5]: lower
- incremental change from baseline in plasma glucose at the 0 min time point ([4]; 10 g fructose at −30 min compared to the 0-min time fructose ingestion treatment, P<0.05): increased
- incremental change from baseline in plasma glucose at the −30 min time point ([4]; 10 g fructose at −60 min compared to the other treatments, P<0.05): increased
- postprandial glycemic response ([4]; 10 g fructose given 30 or 60 min before the meal tolerance test): reduced the postprandial glycemic response
- postprandial glycemic response ([4]; 10 g supplemental fructose given with the meal glucose tolerance test, compared to the control): had no effect
- Incremental AUC [4, 6]: 3059 ± 246 mg·min/dL
- Incremental peak glucose [4, 6]: 65.7 ± 3.2 mg/dL
- Time to peak [4, 6]: 38 ± 1.9 min
- Glycemic index ([4]; Accu-Chek values, 10 g fructose at 0 min, n=31): 98.8 ± 6.2
- Glycemic index ([4]; Accu-Chek values, 10 g fructose at −30 min, n=31): 80.2 ± 8.5
- Incremental AUC [4, 7]: 2329 ± 210 mg·min/dL
- Incremental peak glucose [4, 7]: 49.5 ± 2.5 mg/dL
- Time to peak [4, 7]: 36 ± 2.0 min
- Glycemic index ([4]; Accu-Chek values, 10 g fructose at −60 min, n=31): 84.1 ± 6.6
- Incremental AUC [4, 8]: 2398 ± 142 mg·min/dL
- Incremental peak glucose [4, 8]: 51.6 ± 2.2 mg/dL
- Time to peak [4, 8]: 35 ± 1.3 min
- Incremental AUC [4, 9]: 2592 ± 213 mg·min/dL
- Incremental peak glucose [4, 9]: 56.7 ± 3.0 mg/dL
- Time to peak [4, 9]: 37 ± 1.8 min
- Incremental AUC [4, 10]: 1880 ± 189 mg·min/dL
- Incremental peak glucose [4, 10]: 39.9 ± 2.6 mg/dL
- Time to peak [4, 10]: 33 ± 1.5 min
- Incremental AUC [4, 11]: 2094 ± 132 mg·min/dL
- Incremental peak glucose [4, 11]: 44.4 ± 2.0 mg/dL
- Time to peak [4, 11]: 33 ± 1.2 min
- Glycemic index ([4]; YSI values, 10 g fructose at 0 min, n=28): 107.1 ± 11.1
- Glycemic index ([4]; YSI values, 10 g fructose at −30 min, n=25): 82.5 ± 10.6
- Glycemic index ([4]; YSI values, 10 g fructose at −60 min, n=26): 89.6 ± 7.5
- Time to peak glucose ([4]; between treatments (fructose at −60, −30, 0 min or none), P>0.05): did not differ
- postprandial incremental change from baseline in plasma glucose at 90 and 120 min ([4]; between treatments, P>0.05): did not differ
- incremental change from baseline in plasma glucose at 15 min ([4]; fructose at −30 min compared to the control and 0-min time fructose ingestion treatment, P<0.05): higher
- incremental change from baseline in plasma glucose over the 30, 45 and 60 min time points ([4]; fructose −60 or −30 min relative to the meal tolerance test): tended to be lower
